Test results as given in patent US11377442B2, “Small molecule agonists and antagonists of NR2F6 activity” (ZANDER THERAPEUTICS, INC., priority 2016, dated 2022).
Read-outs that look alike come from different tables or passages of the source.

Tests used:
Format in all cases: cell-based
Renilla = Renilla signal in NR2F6 agonist screening, cmpd/DMSO; conditions: Renilla, F4
NR2F6 LBD = biological target: T1, NR2F6 LBD (Homo sapiens, UniProt P10588); assay: NR2F6 LBD transient transfection; conditions: LBD
T1 construct: expressed in transfected cells
T1 sequence (P10588 165-393 limits assumed): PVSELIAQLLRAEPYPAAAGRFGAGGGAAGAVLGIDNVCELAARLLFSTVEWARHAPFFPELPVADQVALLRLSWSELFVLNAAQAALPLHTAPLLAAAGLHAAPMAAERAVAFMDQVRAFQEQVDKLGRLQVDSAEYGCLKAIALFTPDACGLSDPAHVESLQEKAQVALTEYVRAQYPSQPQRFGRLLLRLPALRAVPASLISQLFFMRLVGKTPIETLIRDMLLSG
Procedure: FIGS. 27A and 27B show NR2F6 and LBD transient transfection, respectively, for Compound D28. Higher concentrations were excluded due to lower signal (tox effect). FIGS. 27C and 27D show NR2F6 and LBD transient transfection at different concentrations for different compounds. 9 compounds were tested on LBD transfected cells (40, 10, 2 and 0.5 μM, 4 replicates). FIGS. 27E and 27F show toxicity of Compound D28. 9 compounds were tested for cytotoxicity on LBD transfected cells (40, 10, 2 and 0.5 μM, 4 replicates). […] Cytotoxicity normalized to DMSO is shown in FIG. 27F (0% cytotoxicity corresponds to DMSO signal, 100%—zero signal).
FIGS. 34A and 34B show NR2F6 LBD transient transfection for Compound E21. 9 compounds were tested on LBD transfected cells (40, 10, 2 and 0.5 μM, 4 replicates). FIGS. 34C and 34D show NR2F6 and LBD transient transfection at different concentrations for different compounds. 9 compounds were tested on LBD transfected cells (40, 10, 2 and 0.5 μM, 4 replicates). […] Cytotoxicity normalized to DMSO is shown in FIG. 34D (0% cytotoxicity corresponds to DMSO signal, 100%—zero signal). All compounds were tested at 5, 10, 25 and 50 uM in duplicates. Dog PBMC (1×10^6 cells/mL) were activated by 10 ng/mL PMA+500 ng/mL ionomycin. Data were normalized to controls with (100%)/without (0%) PMA+ionomycin activation.
FIGS. 39A and 39B show NR2F6 LBD transient transfection for Compound F1. 9 compounds were tested on LBD transfected cells (40, 10, 2 and 0.5 μM, 4 replicates). FIGS. 39C and 39D show toxicity of NR2F6 LBD transient transfection. 9 compounds were tested for cytotoxicity on LBD transfected cells (40, 10, 2 and 0.5 μM, 4 replicates). Tox effect causes lower signal compared to DMSO. Cytotoxicity normalized to DMSO is shown in FIG. 39D (0% cytotoxicity corresponds to DMSO signal, 100%—zero signal).

HEK293 pGL4 = assay: Firefly_pGL signal, cmpd/DMSO (pGL4 control cells); conditions: Homo sapiens
NR2F6 = biological target: T2, NR2F6 (Homo sapiens, UniProt P10588); assay: NR2F6 agonist screening, Firefly signal cmpd/DMSO; conditions: for F4, Firefly/Renilla for S/B(F4) > 3 / Firefly, F4/pGL4 for S/B(F4) > 3 / Firefly, F4, 10% FBS, cmpd/DMSO (mean): 10% FBS
T2 construct: expressed in transfected cells; also transient transfection
T2 sequence (P10588 1-404): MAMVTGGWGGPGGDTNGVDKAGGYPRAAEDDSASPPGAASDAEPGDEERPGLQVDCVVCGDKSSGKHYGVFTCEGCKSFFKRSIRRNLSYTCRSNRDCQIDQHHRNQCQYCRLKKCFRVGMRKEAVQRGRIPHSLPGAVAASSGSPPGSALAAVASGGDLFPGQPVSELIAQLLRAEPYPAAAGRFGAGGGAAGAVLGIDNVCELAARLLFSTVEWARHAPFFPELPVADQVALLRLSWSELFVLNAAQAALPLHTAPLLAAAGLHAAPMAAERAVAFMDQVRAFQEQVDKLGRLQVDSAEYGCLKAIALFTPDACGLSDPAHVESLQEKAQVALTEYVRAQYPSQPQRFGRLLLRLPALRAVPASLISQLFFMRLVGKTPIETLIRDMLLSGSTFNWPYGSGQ

[1] = read-out: Renilla, F4, cmpd/DMSO (mean)
[2] = 1% FBS, read-out: Renilla, F4, 1% FBS, cmpd/DMSO (mean)
[3] = 10% FBS, read-out: Renilla, F4, 10% FBS, cmpd/DMSO (mean)
[4] = HEK293, 0.5 uM, pGL4, read-out: Firefly pGL4, cmpd/DMSO (mean)
[5] = HEK293, 2 uM, pGL4, read-out: Firefly pGL4, cmpd/DMSO (mean)
[6] = HEK293, 10 uM, pGL4, read-out: Firefly pGL4, cmpd/DMSO (mean)
[7] = HEK293, 40 uM, pGL4, read-out: Firefly pGL4, cmpd/DMSO (mean)
[8] = HEK293, pGL4, 1% FBS, 0.5 uM, read-out: Firefly, pGL4, 1% FBS, cmpd/DMSO (mean)
[9] = HEK293, pGL4, 1% FBS, 2 uM, read-out: Firefly, pGL4, 1% FBS, cmpd/DMSO (mean)
[10] = HEK293, pGL4, 1% FBS, 10 uM, read-out: Firefly, pGL4, 1% FBS, cmpd/DMSO (mean)
[11] = HEK293, pGL4, 1% FBS, 40 uM, read-out: Firefly, pGL4, 1% FBS, cmpd/DMSO (mean)
[12] = HEK293, pGL4, 10% FBS, 0.5 uM, read-out: Firefly, pGL4, 10% FBS, cmpd/DMSO (mean)
[13] = HEK293, pGL4, 10% FBS, 2 uM, read-out: Firefly, pGL4, 10% FBS, cmpd/DMSO (mean)
[14] = HEK293, pGL4, 10% FBS, 10 uM, read-out: Firefly, pGL4, 10% FBS, cmpd/DMSO (mean)
[15] = HEK293, pGL4, 10% FBS, 40 uM, read-out: Firefly, pGL4, 10% FBS, cmpd/DMSO (mean)

CCC(C)N[C@H]1CS(=O)(=O)C[C@@H]1S(=O)(=O)c1ccc(C)cc1 (stereo partly drawn) [Compound D113] gave a fold induction at 0.5 µM (Renilla; [1]) of 1.1, a fold induction at 2 µM (Renilla; [1]) of 1 and a fold induction at 10 µM (Renilla; [1]) of 1.3. It also gave a fold induction at 40 µM (Renilla; [1]) of 1.4, a fold induction at 0.5 µM (Renilla; [2]) of 1.3 and a fold induction at 2 µM (Renilla; [2]) of 1.2. It also gave a fold induction at 10 µM (Renilla; [2]) of 1.6, a fold induction at 40 µM (Renilla; [2]) of 1.8 and a fold induction at 0.5 µM (Renilla; [3]) of 1. For the same molecule, the fold induction at 2 µM (Renilla; [3]) was 1, the fold induction at 10 µM (Renilla; [3]) was 1.2 and the fold induction at 40 µM (Renilla; [3]) was 1.8. The “Firefly LBD, cmpd/DMSO (mean)” value (NR2F6 LBD; 0.5 uM) was 1.1, the “Firefly LBD, cmpd/DMSO (mean)” value (NR2F6 LBD; 2 uM) was 1.3 and the “Firefly LBD, cmpd/DMSO (mean)” value (NR2F6 LBD; 10 uM) was 2.2. The “Firefly LBD, cmpd/DMSO (mean)” value (NR2F6 LBD; 40 uM) was 2.5, the fold induction at 0.5 µM (HEK293 pGL4; [4]) was 1.2 and the fold induction at 2 µM (HEK293 pGL4; [5]) was 1.1. It also gave a fold induction at 10 µM (HEK293 pGL4; [6]) of 2.6, a fold induction at 40 µM (HEK293 pGL4; [7]) of 2 and a fold induction at 0.5 µM (HEK293 pGL4; [8]) of 1. It also gave a fold induction at 2 µM (HEK293 pGL4; [9]) of 1.2, a fold induction at 10 µM (HEK293 pGL4; [10]) of 1.8 and a fold induction at 40 µM (HEK293 pGL4; [11]) of 1.6. For the same molecule, the fold induction at 0.5 µM (HEK293 pGL4; [12]) was 1.1, the fold induction at 2 µM (HEK293 pGL4; [13]) was 1.2 and the fold induction at 10 µM (HEK293 pGL4; [14]) was 1.7. The fold induction at 40 µM (HEK293 pGL4; [15]) was 2.5, the “Firefly F4, cmpd/DMSO (mean)” value (NR2F6; 0.5 uM) was 1.3 and the “Firefly F4, cmpd/DMSO (mean)” value (NR2F6; 2 uM) was 1.6. The “Firefly F4, cmpd/DMSO (mean)” value (NR2F6; 10 uM) was 2.8, the “Firefly F4, cmpd/DMSO (mean)” value (NR2F6; 40 uM) was 3.3 and the “F4, Firefly/Renilla for S/B(F4) > 3” value (NR2F6; 40 uM) was 3.2. The “Firefly, F4/pGL4 for S/B(F4) > 3” value (NR2F6; 40 uM) was 2.3, the “Firefly, F4, 1% FBS, cmpd/DMSO (mean)” value (NR2F6; 0.5 uM) was 1.4 and the “Firefly, F4, 1% FBS, cmpd/DMSO (mean)” value (NR2F6; 2 uM) was 1.1. For the same molecule, the “Firefly, F4, 1% FBS, cmpd/DMSO (mean)” value (NR2F6; 10 uM) was 2.8, the “Firefly, F4, 1% FBS, cmpd/DMSO (mean)” value (NR2F6; 40 uM) was 2.5 and the “Firefly, F4, 10% FBS, cmpd/DMSO (mean)” value (NR2F6; 0.5 uM) was 1.7. For the same molecule, the “Firefly, F4, 10% FBS, cmpd/DMSO (mean)” value (NR2F6; 2 uM) was 1.5, the “Firefly, F4, 10% FBS, cmpd/DMSO (mean)” value (NR2F6; 10 uM) was 2.1 and the “Firefly, F4, 10% FBS, cmpd/DMSO (mean)” value (NR2F6; 40 uM) was 5.8.

Work on O=S1(=O)C[C@H](NC2CCCC2)[C@@H](S(=O)(=O)c2ccc(F)cc2)C1 [Compound D114] yielded a fold induction at 0.5 µM (Renilla; [1]) of 1, a fold induction at 2 µM (Renilla; [1]) of 1.1 and a fold induction at 10 µM (Renilla; [1]) of 1.2. The fold induction at 40 µM (Renilla; [1]) was 1.3, the fold induction at 0.5 µM (Renilla; [2]) was 1.1 and the fold induction at 2 µM (Renilla; [2]) was 1.2. It also gave a fold induction at 10 µM (Renilla; [2]) of 1.7, a fold induction at 40 µM (Renilla; [2]) of 1.8 and a fold induction at 0.5 µM (Renilla; [3]) of 0.9. For the same molecule, the fold induction at 2 µM (Renilla; [3]) was 1, the fold induction at 10 µM (Renilla; [3]) was 1.1 and the fold induction at 40 µM (Renilla; [3]) was 1.5. For the same molecule, the “Firefly LBD, cmpd/DMSO (mean)” value (NR2F6 LBD; 0.5 uM) was 1.1, the “Firefly LBD, cmpd/DMSO (mean)” value (NR2F6 LBD; 2 uM) was 1.3 and the “Firefly LBD, cmpd/DMSO (mean)” value (NR2F6 LBD; 10 uM) was 1.9. For the same molecule, the “Firefly LBD, cmpd/DMSO (mean)” value (NR2F6 LBD; 40 uM) was 2.2, the fold induction at 0.5 µM (HEK293 pGL4; [4]) was 1.1 and the fold induction at 2 µM (HEK293 pGL4; [5]) was 1.3. The fold induction at 10 µM (HEK293 pGL4; [6]) was 2, the fold induction at 40 µM (HEK293 pGL4; [7]) was 2 and the fold induction at 0.5 µM (HEK293 pGL4; [8]) was 1.1. The fold induction at 2 µM (HEK293 pGL4; [9]) was 1.3, the fold induction at 10 µM (HEK293 pGL4; [10]) was 1.7 and the fold induction at 40 µM (HEK293 pGL4; [11]) was 1.5. The fold induction at 0.5 µM (HEK293 pGL4; [12]) was 1.3, the fold induction at 2 µM (HEK293 pGL4; [13]) was 1.3 and the fold induction at 10 µM (HEK293 pGL4; [14]) was 1.5. For the same molecule, the fold induction at 40 µM (HEK293 pGL4; [15]) was 2, the “Firefly F4, cmpd/DMSO (mean)” value (NR2F6; 0.5 uM) was 1.6 and the “Firefly F4, cmpd/DMSO (mean)” value (NR2F6; 2 uM) was 1.6. The “Firefly F4, cmpd/DMSO (mean)” value (NR2F6; 10 uM) was 2.4, the “Firefly F4, cmpd/DMSO (mean)” value (NR2F6; 40 uM) was 3.6 and the “F4, Firefly/Renilla for S/B(F4) > 3” value (NR2F6; 40 uM) was 2.1. For the same molecule, the “Firefly, F4/pGL4 for S/B(F4) > 3” value (NR2F6; 40 uM) was 1.6, the “Firefly, F4, 1% FBS, cmpd/DMSO (mean)” value (NR2F6; 0.5 uM) was 1.3 and the “Firefly, F4, 1% FBS, cmpd/DMSO (mean)” value (NR2F6; 2 uM) was 1.0. The “Firefly, F4, 1% FBS, cmpd/DMSO (mean)” value (NR2F6; 10 uM) was 1.8, the “Firefly, F4, 1% FBS, cmpd/DMSO (mean)” value (NR2F6; 40 uM) was 2.2 and the “Firefly, F4, 10% FBS, cmpd/DMSO (mean)” value (NR2F6; 0.5 uM) was 1.2. The “Firefly, F4, 10% FBS, cmpd/DMSO (mean)” value (NR2F6; 2 uM) was 1.1, the “Firefly, F4, 10% FBS, cmpd/DMSO (mean)” value (NR2F6; 10 uM) was 1.7 and the “Firefly, F4, 10% FBS, cmpd/DMSO (mean)” value (NR2F6; 40 uM) was 3.2.
